Here are results for four compounds from US12268726B2, “Treatment of rhinosinusitis with P-glycoprotein inhibitors” (Massachusetts Eye and Ear Infirmary, priority 2012, dated 2025).

Data set [1] has as its target T1, P-gp (Homo sapiens, UniProt P08183). Particulars: Varma et al., 2003; cited from earlier work.
The subject of data set [2] is IL-6, IL-8, GM-CSF, TSLP secretion in PNECCs. Nature of the data set: LPS stimulated cytokine secretion (ELISA) in PNECCs. The format is cell-based, human. Particulars: mean; for normalized IL-6 secretion: normalized to total media protein. The procedure:
(§1) Cells were exposed to 23 hours of stimulation with LPS (0.05 mg/mL) with or without concomitant P-gp inhibition by PSC 833(8 micM), which was applied to cells 1 hour prior to LPS treatment. Control wells were considered those exposed to culture medium alone (BEGM). A 0.4% trypan blue (Sigma, St. Louis, MO) cell survival assay was used to ensure the stimulant and inhibitor exposures were not cytotoxic. In all wells less than 20% of cells were stained blue indicating greater than 80% survival. Following the LPS and PSC 833 exposures, the media was removed from each well. Cytokine concentrations for IL-6, IL-8, GM-CSF, and TSLP in each well were determined by ELISA according to the manufacturer guidelines (eBioscience, San Diego, CA). Cytokine concentrations were normalized to total media protein concentrations using a Pierce BCA Protein Assay Kit.
For orientation: ELISA stands for enzyme-linked immunosorbent assay.

For data set [3], the system named is P-gp. Format: cell-based, human. Particulars: PNECCs, mean. Here is the method: Following removal of media from each well, the cytoplasmic and membranous protein fractions were isolated using a two-step extraction assay (DualXtract, Bulldog Bio, Inc., Portsmouth, NH). Membrane bound P-gp was quantified by subjecting the membranous fraction to ELISA (USCN Life Sciences Inc., Wuhan, P.R. China) and normalized to the cytoplasmic protein concentration.
In some wells, a specific P-gp inhibitor (PSC 833 8 micM, Tocris Bioscience, Bristol, UK) was applied to the cells 1 hour prior to LPS stimulation. Following the LPS and PSC 833 treatment, the media was removed from each well, and ELISA was performed to quantify membrane bound P-gp.

Data set [4] deals with P-gp. As to the kind of experiment: Q-FIHC for membranous P-gp expression in PNECCs. Format: cell-based, human. Particulars: LPS 0.05 mg/mL, 23 h. The procedure: Exclusion criteria included the following: diagnosis of chronic sinusitis, use of oral steroids or immunotherapy within the preceding 4 weeks, aspirin sensitivity, ciliary dysfunction, autoimmune disease, cystic fibrosis, or any known immunodeficiency. All tissues were derived from schneiderian mucosa within the middle meatus.
Mucosal biopsies were washed and digested in Pronase for 90 minutes at 37° C. Cell suspensions were separated from particulate matter by centrifugation and resuspended in basal epithelial growth medium (BEGM) (Lonza, Basel, Switzerland). Cells were plated for 2 hours on standard tissue culture plates to remove contaminating fibroblasts. Cells were then expanded for 3-5 days on collagen coated 75 cm 2 dishes (Corning Life Sciences, Corning, NY). Once confluent, the PNECCs were trypsinized and re-seeded evenly on human collagen type IV-coated 6-well tissue culture plates. Cultures were grown to 80% confluence in BEGM prior to testing. PNECC cells intended for immunohistochemistry were grown on tissue culture treated coverslips placed within the wells. […]
Q-FIHC for membranous P-gp expression was performed using previously described techniques (Kirkeby et al., 2005). […] The mean corrected luminosity was considered the staining intensity (calculated using Image J v1.45s) divided by the total number of pixels subtended by the cells.

Data set [5] has as its system GM-CSF, IL-6, IL-8, IL-25 secretion in HSNECCs. Nature of the data set: P-gp mediated cytokine secretion testing (ELISA) in HSNECCs. Format: cell-based, human. The procedure:
(§2) For P-gp mediated cytokine secretion testing, HSNECC cells were exposed to 0.05 mg/mL LPS stimulation for 23 hours with or without concomitant P-gp inhibition using PSC 833 (8 μM), which was applied one hour prior to LPS stimulation. Control wells were considered those exposed to culture medium alone (BEGM). A 0.4% trypan blue (Sigma, St. Louis, MO) cell survival assay was used to ensure the stimulant and inhibitor exposures were not cytotoxic. In all wells less than 20% of cells were stained blue indicating greater than 80% survival. Following the LPS and PSC 833 exposures, the media was removed from each well. Cytokine concentrations for GM-CSF, IL-6, IL-8, and IL-25 in each well were determined by ELISA according to the manufacturer guidelines (GM-CSF, IL-6, IL-8 eBioscience, San Diego, CA; IL-25 Assay Biotechnology, San Francisco, CA). Cytokine concentrations were normalized to total media protein concentrations using a Pierce BCA Protein Assay Kit.

The subject of data set [6] is P-gp. As to the kind of experiment: ELISA of membrane-bound P-glycoprotein in CRSwNP HSNECCs. Format: cell-based, human. Particulars: LPS 0.05 mg/mL, ng/mL normalized to total cytoplasmic protein (mcg/mL) per FIG. 17B. The procedure:
Human sinonasal nasal epithelial cell cultures (HSNECCs) from five patients were grown from nasal polyps as previously described. Briefly, polyp samples were washed and digested in Pronase for 90 minutes at 37° C. Cell suspensions were separated from particulate matter by centrifugation and resuspended in BEGM. Cells were plated for 2 hours on standard tissue culture plates to remove contaminating fibroblasts. Cells were then expanded for 3-5 days on collagen coated 75 cm^2 dishes (Corning Life Sciences, Corning, NY). Once confluent, the HSNECCs were trypsinized and re-seeded evenly on human collagen type IV-coated 6-well and 96-well tissue culture plates. 6-well cultures were grown to 80% confluence in BEGM prior to cytokine and protein analysis. 96-well plates intended for the dose dependent inhibition assay were grown to 100% confluence. Cells intended for immunohistochemistry were grown on tissue culture treated coverslips.
Membrane-bound P-glycoprotein in HSNECCs was quantified as follows. After removal of media from each well, the cytoplasmic and membranous protein fractions were isolated using a two-step extraction assay (DualXtract, Bulldog Bio, Inc., Portsmouth, NH).

The test system of another data set is GM-CSF secretion. As to the kind of experiment: GM-CSF secretion in LPS stimulated CRSwNP primary sinonasal epithelial cells with dexamethasone. The format is cell-based, human. Particulars: LPS 0.0125 mg/ml. The text has this: The increase in intracellular corticosteroid concentration potentiates its anti-inflammatory effect. Primary sinonasal epithelial cell culture was derived from patients with chronic sinusitis with nasal polyps (CRSwNP) and stimulated with LPS, a component of gram negative bacterial cell walls.

The next data set concerns PNECCs. Nature of the data set: 0.4% trypan blue cell survival assay in PNECCs. Format: cell-based, human. Here is the method: PNECC cells were exposed to 23 hours of stimulation with lipopolysaccharide (LPS, 0.05 mg/mL), which is a toll-like receptor 4 agonist and capable of eliciting a strong immune responses. Control cells were considered those exposed to culture medium alone (BEGM). A 0.4% trypan blue (Sigma, St. Louis, MO) cell survival assay was used to ensure the stimulant exposures were not cytotoxic. In all wells, less than 20% of cells were stained blue indicating greater than 80% survival of the cells. Following the LPS exposures, the media was removed from each well.
as §1, with “Cytokine concentrations were normalized to total media protein concentrations using a Pierce BCA Protein Assay Kit.” left out

For the next data set, the system named is HSNECC cells. The format is cell-based. Particulars: human, 24 h, 8 µM. The procedure: as §2
Data set [7] has as its target T1, P-gp. As to the kind of experiment: Steroid release from nasal polyp explants after dexamethasone incubation. The format is cell-based. Particulars: polyp explants after 30-minute dexamethasone 0.05 mg/mL; PSC 833 (804) vs media alone. Here is the method:
The ability of nasal polyp explants to retain steroid after a 30-minute incubation in dexamethasone (0.05 mg/mL, n=6) was examined. Following incubation, polyp explants were placed either in media alone or in media containing the P-gp inhibitor PSC 833 (804) and the amount of steroid released by the explants into the surrounding media was measured.

The target in data set [8] is T1, P-gp. As to the kind of experiment: Intracellular dexamethasone retention in primary sinonasal epithelial cells (CRSwNP). The format is cell-based. Particulars: LPS stimulated, three patients.
Description: These cultured primary sinonasal epithelial cells were stimulated with lipopolysaccharide (LPS) in the presence or absence of the P-gp inhibitor PSC 833.
The mark [9] stands for this setting: LPS 0.05 mg/mL + PSC 833 8 micM.
Setting [10] is: LPS 0.05 mg/mL + PSC 833 8 μM, no inhibition.

Read-outs that look alike come from different tables or passages of the source.

T1 sequence (P08183 whole entry): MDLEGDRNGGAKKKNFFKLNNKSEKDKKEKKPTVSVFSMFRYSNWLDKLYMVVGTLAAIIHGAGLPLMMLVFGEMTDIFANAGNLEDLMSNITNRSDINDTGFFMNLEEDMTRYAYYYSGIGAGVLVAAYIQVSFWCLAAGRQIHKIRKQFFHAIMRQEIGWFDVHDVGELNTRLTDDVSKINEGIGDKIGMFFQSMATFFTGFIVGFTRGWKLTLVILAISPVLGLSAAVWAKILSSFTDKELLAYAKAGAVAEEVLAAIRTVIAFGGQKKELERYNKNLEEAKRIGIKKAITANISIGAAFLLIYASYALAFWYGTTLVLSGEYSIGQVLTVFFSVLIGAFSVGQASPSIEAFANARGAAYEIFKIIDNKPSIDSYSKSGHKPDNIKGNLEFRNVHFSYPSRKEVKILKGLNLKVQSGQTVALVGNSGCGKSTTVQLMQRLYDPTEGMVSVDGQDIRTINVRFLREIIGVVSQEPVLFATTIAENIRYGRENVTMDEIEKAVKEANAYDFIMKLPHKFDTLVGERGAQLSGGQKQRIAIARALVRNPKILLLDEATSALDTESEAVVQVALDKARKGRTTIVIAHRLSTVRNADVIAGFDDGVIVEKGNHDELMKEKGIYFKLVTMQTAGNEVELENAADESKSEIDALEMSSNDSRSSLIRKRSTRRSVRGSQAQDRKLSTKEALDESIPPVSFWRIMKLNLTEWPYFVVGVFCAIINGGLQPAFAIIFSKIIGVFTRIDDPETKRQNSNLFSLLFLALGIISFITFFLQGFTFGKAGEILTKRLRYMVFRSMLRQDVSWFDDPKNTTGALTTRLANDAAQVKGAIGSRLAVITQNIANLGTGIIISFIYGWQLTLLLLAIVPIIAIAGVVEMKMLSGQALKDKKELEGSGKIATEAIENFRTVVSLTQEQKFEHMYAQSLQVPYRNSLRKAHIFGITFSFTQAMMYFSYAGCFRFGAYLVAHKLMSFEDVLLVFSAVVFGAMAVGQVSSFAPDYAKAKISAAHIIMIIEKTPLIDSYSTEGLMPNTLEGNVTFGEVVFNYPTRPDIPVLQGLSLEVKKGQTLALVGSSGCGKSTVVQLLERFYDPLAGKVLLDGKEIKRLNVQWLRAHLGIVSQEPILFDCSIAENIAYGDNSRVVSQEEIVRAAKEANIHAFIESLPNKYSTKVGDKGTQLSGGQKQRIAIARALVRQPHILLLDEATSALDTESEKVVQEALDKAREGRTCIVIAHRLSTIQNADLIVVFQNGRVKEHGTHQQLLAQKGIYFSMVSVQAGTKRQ

For the compound `CCOC/C=C/c1ccc(-c2nc(-c3ccc(NC(C)C)cc3)c(-c3ccc(NC(C)C)cc3)[nH]2)cc1` [OC144093, 4-[2-[4-[(E)-3-ethoxyprop-1-enyl]phenyl]-4-[4-(propan-2-ylamino)phenyl]-1H-imidazol-5-yl]-N-propan-2-ylaniline], the “potency relative to the first and second-generation P-gp inhibitors” value at P-gp [1] is given as “about 10 fold”.

Turning to lipopolysaccharide [LPS], in data set [2] (LPS 0.05 mg/mL alone, 23 h), the “normalized GM-CSF secretion” value came to 39.92, the “normalized IL-8 secretion” value was 912.91, the “normalized TSLP secretion” value turned out to be 6.65 and the “normalized IL-6 secretion” value came to 79.67. Moreover, the “normalized membranous P-gp (ELISA, normalized to cytoplasmic protein)” value in the data set on P-gp [3] (LPS 0.05 mg/mL alone, 23 h) worked out at 19.63. In the data set with P-gp [4], the “mean corrected luminosity of membranous P-gp (Q-FIHC)” value was 9.64. Further, in data set [5] (LPS 0.05 mg/mL alone, 23 hours), the “secretion of GM-CSF normalized to total media protein” value is recorded as 45.21+/−41.39 pcg/mL normalized to total med, the “secretion of IL-6 normalized to total media protein” value is 63.16+/−36.37 pcg/mL normalized to total med, the “secretion of IL-8 normalized to total media protein” value is reported as 1041.17+/−550.52 pcg/mL normalized to total med and the “secretion of IL-25 normalized to total media protein” value is 0.075+/−0.039 pcg/mL normalized to total med. The “mean normalized concentration of membranous P-gp (ELISA)” value in the data set with P-gp [6] is 22.23+/−10.22. Also, the “GM-CSF secretion versus unstimulated control cells” value with GM-CSF secretion is reported as “increased GM-CSF secretion”. The “cell survival (trypan blue)” value in the data set with PNECCs (PNECCs, LPS 0.05 mg/mL, 23 hours) was “greater than 80%”.

`C/C=C/C[C@@H](C)C(=O)[C@H]1C(=O)N[C@@H](C(C)C)C(=O)N(C)CC(=O)N(C)[C@@H](CC(C)C)C(=O)N[C@@H](C(C)C)C(=O)N(C)[C@@H](CC(C)C)C(=O)N[C@@H](C)C(=O)N[C@H](C)C(=O)N(C)[C@@H](CC(C)C)C(=O)N(C)[C@@H](CC(C)C)C(=O)N(C)[C@@H](C(C)C)C(=O)N1C` [PSC 833, 6-[(2S,4R,6E)-4-methyl-2-(methylamino)-3-oxo-6-octenoic acid]-7-L-valine-cyclosporin A]: in data set [2] (setting [9]), the “normalized GM-CSF secretion” value came to 7.64, the “normalized TSLP secretion” value came out at 5.13 and the “normalized IL-6 secretion” value turned out to be 37.60. Moreover, in data set [2] (LPS 0.05 mg/mL + PSC 833 8 micM, reduction not significant (p=0.313)), the “normalized IL-8 secretion” value worked out at 801.09. In addition, the “normalized membranous P-gp (ELISA, normalized to cytoplasmic protein)” value in the data set on P-gp [3] (LPS + PSC 833 8 micM applied 1 hour prior to LPS, not significant vs LPS alone (p=0.115)) turned out to be 70.40. Also, in the data set with HSNECC cells, the “cell survival (trypan blue)” value is reported as “greater than 80%”. In [5] (LPS 0.05 mg/mL + PSC 833 8 μM), the “secretion of GM-CSF normalized to total media protein” value is 8.47+/−3.28 pcg/mL normalized to total med and the “secretion of IL-6 normalized to total media protein” value is 39.94+/−31.07 pcg/mL normalized to total med. Further, in data set [5] (setting [10]), the “secretion of IL-8 normalized to total media protein” value is listed as 1608.41+/−471.94 pcg/mL normalized to total med and the “secretion of IL-25 normalized to total media protein” value is 0.073+/−0.038 pcg/mL normalized to total med. Further, the “steroid release by explants into surrounding media” value at P-gp [7] was “statistically significant decrease”. For the same compound, the “intracellular dexamethasone retention relative to dexamethasone alone” value at P-gp [8] is reported as “increased intracellular dexamethasone retention”. For the same compound, the “GM-CSF secretion compared to dexamethasone treatment alone” value in the data set with GM-CSF secretion (PSC833 (804) + dexamethasone 0.1 mg/mL) is recorded as “reduced GM-CSF secretion”. For the same compound, the “cell survival (trypan blue)” value with PNECCs (human, 24 h, 8 µM) was “greater than 80%”.

`COc1cc2c(cc1OC)CN(CCc1ccc(NC(=O)c3cc(OC)c(OC)cc3NC(=O)c3cnc4ccccc4c3)cc1)CC2` [XR9576, N-[2-[[4-[2-(6,7-Dimethoxy-3,4-dihydro-1H-isoquinolin-2-yl)ethyl]phenyl]carbamoyl]-4,5-dimethoxyphenyl]quinoline-3-carboxamide]: on P-gp [1], the “potency relative to the first and second-generation P-gp inhibitors” value is recorded as “about 10 fold”.
